Test results as given in patent publication US20020182590A1, “Determining protein function in cell culture using RNA interference” (Vanderbilt University, priority 2001, published 2002).

System: outwardly rectifying whole-cell currents of C. elegans body wall muscles
Assay: Whole-cell patch clamp recordings from cultured myo-3::GFP-expressing body wall muscle cells
Type: cell-based
Conditions: 20 mM TEA, 3 mM 4-AP
Method: FIGS. 3A-3C—Whole-cell recordings from C. elegans body wall muscles. […] Holding potential =−80 mV. […] Values are means±S.E. (n=8). […] Steady-state currents in the presence and absence of the drugs were measured at +80 mV. Drug effects were reversible. Values are means±S.E. (n=3-5).
Electrophysiology. Cells are patch clamped using either the conventional whole-cell mode or perforated patch method. Initially, whole-cell measurements are performed using “physiological” pipette and bath solutions. The composition of C. elegans extracellular and intracellular fluids is currently unknown. Ascaris bath Ringer's (Richmond & Jorgenson, 1999) and conventional high K^+, low Na^+ and Cl^− pipette solutions are used. Standard voltage clamp protocols are used to assess the voltage-dependence of channels responsible for whole-cell currents.
For these experiments, the inventors mimicked the experimental protocol and bath and pipette solutions used recently for in vivo patch clamp studies of C. elegans body wall muscles (Richmond et al., 1999). When cultured body muscles were patch clamped with a pipette solution containing 120 mM KCl (Richmond et al., 1999), slowly inactivating, strongly outwardly rectifying currents were observed (FIG. 3). These currents were inhibited 40% by 20 mM TEA and 85% by 20 mM TEA plus 3 mM 4-aminopyridine (4-AP). […]

## CC[N+](CC)(CC)CC [TEA]
  reversibility of drug effects on currents: reversible
Bath addition, steady-state currents at +80 mV, pipette 120 mM KCl
  inhibition of whole-cell currents: 40%
